Laboratory results reported in US20150086655A1, “Morinda Citrifolia Juice Formulations Comprising Iridoids” (priority 2013, published 2015).

What was measured:
E. coli PQ37 [1] = experiment: Primary DNA damage test (SOS-chromotest); type: cell-based; conditions: all concentrations tested (7.81-1000 μg mL^−1)
Protocol: The SOS-chromotest in E. coli PQ37 was used to determine the potential for DAA and AA to induce primary DNA damage. This test was carried out according to the previously developed method (Fish et al., 1987). […] E. coli PQ37 was incubated in LB medium in a 96-well plate at 37° C. in the presence of DAA or AA for 2 hours. The DAA and AA concentrations tested were 7.81, 15.6, 31.2, 62.5, 125, 250, 500, and 1000 μg mL^−1. Samples were evaluated in triplicate. […] Induction factors less than two indicate an absence of genotoxic activity.

[2] = Thermal stability of DAA under pasteurization conditions (HPLC); type: physicochemical; conditions: 90° C. at pH 3.3 for one minute
Protocol: Tahitian noni fruit puree as used in this example is the mashed whole fruit, excluding seeds and pericarp. The fruits were originally collected from the Tahitian Islands. One gram of the puree was diluted with 5 mL of H2O-MeOH (1:1) and mixed thoroughly. The solution was then filtered through a nylon microfilter (0.45-μm pore size); the solution was collected into a 5 mL volumetric flask for HPLC analysis. Four batches of noni puree were analyzed in the experiments. Voucher specimens of the noni fruit puree are deposited in our lab. To test iridoid stability, a DAA solution of 0.5 mg/mL was prepared with MeOH. This solution was heated in a water-bath at 90° C. for 1 min, cooled to room temperature, and analyzed by HPLC.
Noni fruit juice is usually subjected to heat pasteurization during commercial processing. Pasteurization is usually employed in noni industry, i.e., heating up to 87.7° C. for several seconds. In this study, the stability of DAA was conducted. DAA was exposed to 90° C. at pH 3.3 for one minute to determine its thermal stability at acidic conditions.

E. coli PQ37 [3] = type: cell-based; conditions: 250 ug mL^−1 iridoid plus 1.25 ug mL^−1 4NQO
Protocol: The SOS-chromotest in E. coli PQ37 was used to determine the potential for iridoids in noni fruit from French Polynesia to prevent primary DNA damage. E. coli PQ37 was incubated at 37° C. in the presence of deacetylasperulosidic acid and asperulosidic acid at a concentration of 250 ug mL^−1 in a 96-well plate. Replicate samples were evaluated.

Row | SMILES | induction of SOS repair versus blank (E. coli PQ37 [1]) | DAA content before and after heating (thermal stability) [2] | induction factors (mean±standard deviation) (E. coli PQ37 [3])
1 | CC(=O)OCC1=C[C@H](O)[C@@H]2C(C(=O)O)=CO[C@@H](O[C@@H]3O[C@H](CO)[C@@H](O)[C@H](O)[C@H]3O)[C@H]12 [AA, asperulosidic acid] | did not induce any SOS repair |  | 
2 | O=C(O)C1=CO[C@@H](O[C@@H]2O[C@H](CO)[C@@H](O)[C@H](O)[C@H]2O)[C@@H]2C(CO)=C[C@H](O)[C@H]12 [DAA, deacetylasperulosidic acid] | did not induce any SOS repair | no difference in the DAA contents before and after heating | 0.98±0.02
